Assay results reported in patent US6689762B1, “Composition and methods for treatment of HIV infection” (Enzon Pharmaceuticals, Inc., priority 1998, dated 2004).
Where “and” joins values, the source holds several entries; their conditions need not be identical. Equal entries are not always repeated.

Legend:
[1] = system: HIV-RNA in supernatant of HIV-1 infected CEM/0 T-cells; assay: HIV-1 quantitative RNA assay (HIV-1 Monitor) in supernatants of CEM/0 T-cells; type: cell-based; design: inhibition of HIV-RNA in the supernatants in comparison to untreated control / % OF CONTROL / % control: concentration or dose not given beside the values; details: for inhibition of HIV-RNA in the supernatants in comparison to untreated control: Experiment 6 text; for % control / MEAN N: Table 3; for Log 10 N: Table 3, per flask; for N*: day 7 post Rx, PEG 0.400 IU/ml, SAQ 25 uM, AZT 1 uM, combinations PEG 0.233 IU/ml + SAQ 14.52 uM
Source text: It should be noted that “PEG” in Table 3 represents PEG-ASNase.
Materials and Methods: The cell line used for these studies is CEM/0, a human T-cell leukemic cell line. PEG-ASNase (ONCASPAR) is provided by Rhone-Poulenc Rorer. Saquinavin is commercially available. AZT is purchased from Sigma. MISID, a ribonucleotide reductase inhibitor, is as described in Nandy P, Lien E J, Avramis V I, Med. Chem. Res. 1995, 5:664-679. RPMI-1640 media (Irvine Scientific, Irvine, Calif.), is enriched with 10% Fetal Calf Serum (Gemini Biosource, Calabasas, Calif.), 5% 1M Hepes Buffer solution and 5% Non-essential amino acids (Irvine Scientific, Irvine, Calif.). The drug concentrations used are as follows:
Briefly, 3×10^6 cells/ml are stimulated with PHA+ media for 48 hours at 37° C. with 5% CO2. Also, the same number of cells are incubated in PHA free media for 48 hours to serve as the negative control. At this point the cells are inoculated with the HIV-1 virus as per standard protocol. Note that in this experiment, the HIV containing supernatant from the PHA-stimulated healthy human peripheral mononuclear cells (PBMC) is not removed from the PHA-stimulated CEM/0 cell culture. […] These virus particles are continuously released by already infected T-cells and/or lymph nodes of patients.
The experimental drugs are added to the cells in the appropriate concentrations at the same time as viral inoculation or 90 minutes after the viral incubation, a time sufficient for the T-cells to be infected and start producing new HIV-1 virus particles. The control cells are resuspended in drug-free media for the duration of the exposure which lasted seven days. Aliquots of media from the control flasks only are obtained on day 5 post Rx. At day seven, three 1 ml each, aliquots of media are removed from the flasks and stored under liquid nitrogen. In addition, the remaining cells are split into three and then pelleted and stored at −80° C. Supernatant specimens are obtained form these T-cell cultures and are frozen at −80° C. The samples produced from this experiment are itemized. The cell pellets of the cellular cultures (see Experiment 9) from the 90 minute viral incubation flasks are assayed for HIV-RNA quantitative assay using a kit for the assay, non-radioactive. […] The standard curve is determined and the HIV-RNA levels for the experimental samples are calculated and reported previously.
This experiment is carried out using a similar procedure, and the same concentrations of materials as in Experiment 10, however the exposure of HIV-RNA in T-cell supernatants to a combination of PEG-ASNase, Saquinavir, AZT and 3TC is measured. It should be noted that “PEG” in Table 10 represents PEG-ASNase.

CEM/0 cells [2] = assay: cells; type: cell-based, human; details: for IC50: Homo sapiens, CCRF-CEM
Source text: A human leukemic T-cell line, hereafter referred to as CEM/0 is used for this experiment. PEG-ASNase is obtained from Rhone-Poulenc Rorer Pharmaceuticals Inc under the tradename Oncaspar®. Saquinavir is obtained from Roche Laboratories under the tradename Invirase™. RPMI-1640 media obtained from Irvine Scientific, Irvine Calif. is enriched with 10% Fetal Calf Serum obtained from Gemini Biosource, Calabasas, Calif., 5% 1M Hepes buffer solution and 5% non-essential amino acids obtained from Irvine Scientific, Irvine Calif.
An experiment is carried out to determine the cytotoxicity of Saquinavir and PEG-ASNase. For determining the cytotoxicity of either compound alone, 2×10^5 cells/ml are incubated in 24-well plates with the following drug concentrations:
(§1) In all in vitro studies, the negative control cells are incubated in a drug-free media for the same duration and under the same conditions as the experimental samples. Cell density is measured via cell counting using a Coulter Counter coupled with a Coulter Channelyzer for each of the experimental flasks at 24, 48 and 72 hours after incubation. Additionally, Trypan Blue Exclusion tests are performed for each of these experimental conditions. Cell numbers are corrected for the viability determined by the Trypan Blue test and presented as a percentage of the untreated control.

CEM/0 cells [3] = assay: Sequential and concurrent combination cytotoxicity of PEG-ASNase and Saquinavir; type: cell-based, human; details: CEM/0 T-cells
Description: In this experiment, the described range of concentrations is used to investigate the combined regimen of Saquinavir and PEG-ASNase. For the sequential combination studies of PEG-ASNase followed by Saquinavir, cells are incubated with the concentrations provided below of PEG-ASNase for 24 hours. Then Saquinavir, in the concentrations provided below, is added to the appropriate cells for an additional twenty-four (24) hours, bringing the total exposure time to forty-eight (48) hours. The exposure involved 2×10^5 cells/ml being incubated in a tissue culture flask with concentrations of the drugs investigated as provided below. […] The drug concentrations used are as follows:
as §1
The reverse sequence is also tested. […] Saquinavir is administered and the cells incubated for twenty-four (24) hours followed by addition of PEG-ASNase and an additional incubation period of twenty-four (24) hours, bringing the total exposure time to forty-eight (48) hours. Other than the drug sequence, the methodology is the same as that mentioned immediately above. The concurrent combination regimen is also tested using the same methodology. […] The concurrent combined methodology experiment had the samples exposed to forty-eight (48) hours of concurrent combined exposure.

[4] = system: asparagine, glutamine, and aspartic acid levels of CEM/0 cells; assay: Determination of amino acid levels after PEG-ASNase exposure (HPLC); type: cell-based, human; details: 24 hours exposure
Description: Experiments to determine the amino acid level in cell suspensions and cell media are performed to determine the effect of PEG-ASNase on the amino acid levels, particularly the levels of asparagine, glutamine, and aspartic acid.
Samples of 50 μl media and 10 μl of 1 mM aminoadopic acid are added to 450 μl of cold methanol in 1.5 ml microfuge tubes. The mixtures are vortexed and centrifuged at 8700 g for two minutes. The supernatants are transferred to borosilicate glass test tubes (13×100 mm) and lyophilized. The specimens are stored at −20° C. until they are analyzed by HPLC. Prior to HPLC analysis, the samples are dissolved in a buffer containing 95% […] disodium hydrogen phosphate and 5% acetonitrile.

CC(C)(C)NC(=O)[C@@H]1C[C@@H]2CCCC[C@@H]2CN1C[C@@H](O)[C@H](Cc1ccccc1)NC(=O)[C@H](CC(N)=O)NC(=O)c1ccc2ccccc2n1 [Saquinavir]
inhibition of HIV-RNA in the supernatants in comparison to untreated control [1]: ~68%
% control [1]: 32.38%
MEAN N [1]: 42100 copies/mL
Log 10 N ([1]; listed as SAQ): 4.61 and 4.60 and 4.66
MEAN ([1]; Table 8): 124762 copies/mL
N* ([1]; Table 8, per specimen, 90 min viral inoculation, MISID 0.685 uM, listed as SAQ): 122515 copies/mL and 128455 copies/mL and 123316 copies/mL
% OF CONTROL ([1]; Table 8 and Experiment 10): 63.82%
MEAN ([1]; Table 10): 2438 copies/mL
N* ([1]; Table 10, per specimen, 3TC 1 uM, listed as SAQ): 2816 copies/mL and 2375 copies/mL and 2122 copies/mL
% OF CONTROL ([1]; Table 10 and Experiment 11): approximately 55%
% OF CONTROL ([1]; Table 10 and Experiment 11, listed as SAQ): 55.08%
IC50 (CEM/0 cells [2]; 72 h, read-out: IC50 in CEM/0 cells): 26 µM
IC50 (CEM/0 cells [2]; read-out: IC50 in CEM/0 cells): 21 to 28 µM
IC50 (CEM/0 cells [2]; read-out: Saquinavir IC50 alone): 25 µM
kill compared to untreated control (CEM/0 cells [2]; Saquinavir 10 μM): 8.76%
kill compared to control cells (CEM/0 cells [2]; Saquinavir 100 μM, highest concentration tested): 99.50%
cell kill (CEM/0 cells [2]; Saquinavir 0.001 to 1 μM): no cell kill
IC50 (CEM/0 cells [3]; Homo sapiens, CCRF-CEM, read-out: IC50 in combination, Saquinavir part, concurrent combination of PEG-ASNase and Saquinavir): 14.5 µM
IC50 (CEM/0 cells [3]; read-out: IC50 in combination, Saquinavir part, concurrent combination of PEG-ASNase and Saquinavir, listed as SAQ): 14.5 µM

Cc1cn([C@H]2C[C@H](N=[N+]=[N-])[C@@H](CO)O2)c(=O)[nH]c1=O [AZT, zidovudine]
MEAN ([1]; Table 8): 120691 copies/mL
N* ([1]; Table 8, per specimen, 90 min viral inoculation, MISID 0.685 uM): 120981 copies/mL and 121288 copies/mL and 119805 copies/mL
% OF CONTROL ([1]; Table 8 and Experiment 10): 61.74%
MEAN ([1]; Table 10): 1437 copies/mL
N* ([1]; Table 10, per specimen, 3TC 1 uM): 1203 copies/mL and 1409 copies/mL and 1700 copies/mL
% OF CONTROL ([1]; Table 10 and Experiment 11): 32.48%

B1: PEG-ASNase: asparaginase conjugated with polyethylene glycol (PEG); sold under the name ONCASPAR by Rhône-Poulenc Rorer (conjugate, UniProt P00805 23-348, looked up)
L-asparaginase 2: LPNITILATGGTIAGGGDSATKSNYTVGKVGVENLVNAVPQLKDIANVKGEQVVNIGSQDMNDNVWLTLAKKINTDCDKTDGFVITHGTDTMEETAYFLDLTVKCDKPVVMVGAMRPSTSMSADGPFNLYNAVVTAADKASANRGVLVVMNDTVLDGRDVTKTNTTDVATFKSVNYGPLGYIHNGKIDYQRTPARKHTSDTPFDVSKLNELPKVGIVYNYANASDLPAKALVDAGYDGIVSAGVGNGNLYKSVFDTLATAAKTGTAVVRSSRVPTGATTQDAEVDDAKYGFVASGTLNPQKARVLLQLALTQTKDPQQIQQIFNQY
modifications: PEG conjugate (pegaspargase)
notes: asparaginase conjugated with polyethylene glycol (PEG); sold under the name ONCASPAR by Rhône-Poulenc Rorer
inhibition of HIV-RNA in the supernatants in comparison to untreated control [1]: approximately 60%
% control [1]: 40.78%
MEAN N [1]: 53020 copies/mL
Log 10 N ([1]; listed as PEG): 4.71 and 4.72 and 4.73
MEAN ([1]; Table 8): 143761 copies/mL
N* ([1]; Table 8, per specimen, 90 min viral inoculation, MISID 0.685 uM, listed as PEG): 147041 copies/mL and 142575 copies/mL and 141667 copies/mL
% OF CONTROL ([1]; Table 8 and Experiment 10): 73.54%
MEAN ([1]; Table 10): 3233 copies/mL
N* ([1]; Table 10, per specimen, 3TC 1 uM, listed as PEG): 3132 copies/mL and 3048 copies/mL and 3520 copies/mL
% OF CONTROL ([1]; Table 10 and Experiment 11): ~73%
% OF CONTROL ([1]; Table 10 and Experiment 11, listed as PEG): 73.06%
PEG-ASNase IC50 alone (CEM/0 cells [2]; CEM/0 T-cells, single agent): 0.4 IU/ml and 0.40 IU/ml
concentration that produces a cytostatic condition (CEM/0 cells [2]; CEM/0 cells in vitro, over 72 hours): approximately 0.5 IU/ml
effect on cell growth (CEM/0 cells [2]; PEG-ASNase 0.03, 0.1, 0.2, 0.3 and 0.4 IU/ml, compared to control growth rate): marginally effective in preventing cell growth
IC50 in combination, PEG-ASNase part (CEM/0 cells [3]; concurrent combination of PEG-ASNase and Saquinavir): 0.233 IU/ml
IC50 in combination, PEG-ASNase part (CEM/0 cells [3]; concurrent combination of PEG-ASNase and Saquinavir, listed as PEG): 0.23 IU/ml
glutamine level, % of the untreated control ([4]; highest PEG-ASNase concentration): less than 3.0%
asparagine level, % of the untreated control ([4]; various PEG-ASNase concentrations): less than 3.0%
